Structures are written as SMILES.

The nature of the series: Tryptophan release / dissolution in fasted-state simulated gastric fluid (FaSSGF). As to conditions: 30 mg powder in 22 mL FaSSGF, 37° C., agitated. It counts as physicochemical.

Protocol: FaSSGF was prepared by dissolving 1 g of NaCl (Sigma-Aldrich) in 450 mL of water, adding 30 mg of SIF powder (biorelvant.com), adjusting the pH to 2.0 with 0.1 N HCl (Sigma-Aldrich) and adding water to a final volume of 500 mL.
30 mg of tryptophan powder were suspended in 22 mL FaSSGF at 37° C. and agitated (shaker ST5 from CAT, Germany). Aliquots were removed at time intervals of 5 min, and tryptophan concentration was quantified using absorption measurement at a wavelength of 280 nm in a NanoDrop® 2000 device (Thermo Scientific, USA).

For the compound `N[C@@H](Cc1c[nH]c2ccccc12)C(=O)O` [Tryptophan, L-Tryptophan], the “time after which quantitatively dissolved” value was 10 min.
